Laboratory results reported in patent US20120107888A1, “MODULATION OF FERMENTATION PRODUCTS THROUGH VITAMIN SUPPLEMENTATION” (Qteros, Inc., priority 2011, published 2012).

System: C. phytofermentans
Conditions: basal medium; ethanol production from pretreated corn stover
Procedure: To examine the effect of individual nutrients (e.g., vitamins or amino acids) on the growth and/or ethanol production of C. phytofermentans, complex nutrients such as yeast extract were reduced to a minimal concentration that will permit sub-optimal growth. Each specific nutrient is added in a titration of increasing amount until a “saturation” of effect is observed.
Corn Stover, Mono and Dibasic Potassium Phosphate and Sodium Chloride were sterilized by autoclaving and the remaining components were added aseptically to each fermentation flask. DBY and CSP were separately prepared each as 100 g/L stocks and autoclaved.
All solutions and materials were degassed prior to use. Prior to inoculation, all flasks receive a sterile addition of commercial cellulases (from Novozymes) consisting of (per 100 mL medium): 0.25 mL Cat# NS50013 and 0.83 mL of diluted (1/10 in water) Cat# NS22002. […]
Following inoculation, flasks were placed in shaking fermenters at 35° C. with agitation at 175 rpm and sampled daily. […] Samples were analyzed for sugars (cellobiose, xylose, arabinose, and glucose) and fermentation products (formic, lactic, and acetic acids and ethanol) using HPLC.

O=C(O)c1cccnc1 [nicotinic acid, Nicotinic acid]
nicotinic acid supplementation above which a saturation effect is seen: > 10 mg/L
